# Source: patent US10124004B2, “Pyrido[3,4-d]pyrimidine derivative and pharmaceutically acceptable salt thereof” (Teijin Pharma Limited, priority 2015, dated 2018)
# How the values were obtained:
# [1] = target: T1, CDK4/cyclin D3 (Homo sapiens, UniProt P11802); test: Human CDK4/cyclin D3 inhibitory activity (QS S Assist CDK4/Cyclin D3_FP Kit, IMAP fluorescence polarization); assay type: biochemical; settings: 50% inhibitory concentration against CDK4/cyclin D3, given as class symbol
# T1 construct: purchased Carna Biosciences, Inc. QS S Assist CDK4/Cyclin D3_FP Kit
# Method in brief: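 Percent inhibition, relative to DMSO with and without enzyme, was curve-fitted to give IC50 from polarization (ex 485, em 535 nm). The 45-min room-temperature reaction used 12.5-25 ng/well enzyme, kit ATP/substrate/metal mix, and HEPES pH 7.4 buffer with Tween20 and DTT, followed by 30-min IMAP binding in the dark.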
# [2] = target: T2, CDK2/cyclin A2 (Homo sapiens, UniProt P24941); test: Human CDK2/cyclin A2 inhibitory activity (QS S Assist CDK2/Cyclin A2_FP Kit, IMAP fluorescence polarization); assay type: biochemical; settings: 50% inhibitory concentration against CDK2/cyclin A2, given as class symbol
# T2 construct: purchased Carna Biosciences, Inc. QS S Assist CDK2/Cyclin A2_FP Kit
# Method in brief: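 Kinase activity read as fluorescence polarization (485/535 nm) after phosphorylated fluorescent substrate binds IMAP reagent (30 min, RT, dark). Enzyme (2.5 ng/well) reacted 60 min at RT with ATP/substrate/metal in HEPES pH 7.4 buffer with Tween 20 and DTT; no-enzyme wells define 0% activity; IC50 by curve fit.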
# T1 sequence (P11802 whole entry): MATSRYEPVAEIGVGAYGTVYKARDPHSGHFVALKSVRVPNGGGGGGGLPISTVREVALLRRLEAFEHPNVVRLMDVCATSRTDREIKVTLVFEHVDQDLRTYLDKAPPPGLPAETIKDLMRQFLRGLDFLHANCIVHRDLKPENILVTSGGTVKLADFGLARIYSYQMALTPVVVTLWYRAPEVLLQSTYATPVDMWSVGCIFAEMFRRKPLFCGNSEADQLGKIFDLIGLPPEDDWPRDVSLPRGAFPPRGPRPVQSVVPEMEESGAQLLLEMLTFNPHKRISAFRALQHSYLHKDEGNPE
# T1 sequence (P30281 whole entry partner): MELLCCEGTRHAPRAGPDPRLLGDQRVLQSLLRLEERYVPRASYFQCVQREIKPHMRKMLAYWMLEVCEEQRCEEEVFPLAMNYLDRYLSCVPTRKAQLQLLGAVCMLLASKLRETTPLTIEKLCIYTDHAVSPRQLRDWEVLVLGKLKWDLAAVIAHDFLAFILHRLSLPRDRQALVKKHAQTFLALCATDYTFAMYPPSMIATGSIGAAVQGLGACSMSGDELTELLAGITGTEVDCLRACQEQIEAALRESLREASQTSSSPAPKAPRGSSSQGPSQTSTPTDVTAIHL
IC50 [1] [nM],IC50 [2] [nM],Compound
< 10,≥ 100,"CC(C)Nc1nc([C@@H](C)O)cc2cnc(Nc3ccc(N4CCN(C[C@H](C)O)CC4)nn3)nc12 [Compound 676, (S)-1-(4-(6-((6-((R)-1-hydroxyethyl)-8-(isopropylamino)pyrido[3,4-d]pyrimidin-2-yl)amino)pyridazin-3-yl)piperazin-1-yl)propan-2-ol]"
< 10,≥ 100,CC(C)Nc1nc([C@@H](C)O)cc2cnc(Nc3ccc(N4CCN(C[C@@H](C)O)CC4)nn3)nc12 [Compound 677]
10 to 100,≥ 100,CO[C@H](C)c1cc2cnc(Nc3ccc(N4CCN(C5COC5)CC4)nn3)nc2c(NC(C)C)n1 [Compound 680]
< 10,≥ 100,CC(C)Nc1nc([C@@H](C)O)cc2cnc(Nc3ccc4c(n3)CCNC4)nc12 [Compound 693]
10 to 100,≥ 100,CC(C)Nc1nc([C@@H](C)O)cc2cnc(Nc3cc4c(cn3)CNCC4)nc12 [Compound 694]
< 10,≥ 100,CC(C)Nc1nc([C@@H](C)O)cc2cnc(Nc3ccc4c(n3)CNC4)nc12 [Compound 695]
< 10,≥ 100,CC(C)Nc1nc([C@@H](C)O)cc2cnc(Nc3ccc(CN4CCN(C(C)(C)CO)CC4)cn3)nc12 [Compound 700]
10 to 100,≥ 100,CC(C)Nc1nc([C@@H](C)O)cc2cnc(Nc3ccc(N4CCC(OCC(=O)O)CC4)nn3)nc12 [Compound 702]
< 10,≥ 100,CC(C)Nc1nc([C@@H](C)O)cc2cnc(Nc3ccc(C4CNCCO4)nn3)nc12 (some centres unmarked) [Compound 706]
< 10,≥ 100,CO[C@H](C)c1cc2cnc(Nc3ccc(N4CCNCC4)nn3)nc2c(NC(C)(C)C)n1 [Compound 709]
< 10,≥ 100,CO[C@H](C)c1cc2cnc(Nc3ccc(N4CCNCC4)nn3)nc2c(NCC(C)(C)C)n1 [Compound 710]
< 10,≥ 100,COC1CCC(Nc2nc([C@@H](C)OC)cc3cnc(Nc4ccc(N5CCNCC5)nn4)nc23)CC1 (some centres unmarked) [Compound 711]
< 10,≥ 100,CO[C@H](C)c1cc2cnc(Nc3ccc(N4CCNCC4)nn3)nc2c(NC2CCCC2)n1 [Compound 712]
10 to 100,≥ 100,CO[C@H](C)c1cc2cnc(Nc3ncc(N4CCNCC4=O)cc3F)nc2c(NC(C)C)n1 [Compound 715]
10 to 100,≥ 100,CC(C)Nc1nc([C@@H](C)O)cc2cnc(Nc3cnc(N4CCNCC4=O)cn3)nc12 [Compound 716]
10 to 100,≥ 100,CC(C)Nc1nc([C@@H](C)F)cc2cnc(Nc3ccc(N4CCNCC4)nn3)nc12 [Compound 718]
< 10,≥ 100,CC(C)Nc1nc([C@@H](C)O)cc2cnc(Nc3ccc(N4CCN(C[C@H](C)O)CCC4=O)cn3)nc12 [Compound 720]
< 10,≥ 100,CC(C)Nc1nc([C@@H](C)O)cc2cnc(Nc3ccc(N4CCC(NC(C)C)CC4)nn3)nc12 [Compound 722]
< 10,≥ 100,CC(C)Nc1nc([C@@H](C)O)cc2cnc(Nc3ccc(N4CCC(O)C5(CC5)C4)nn3)nc12 (some centres unmarked) [Compound 723]
< 10,≥ 100,CO[C@H](C)c1cc2cnc(Nc3ccc(N4CCNCC4)nn3)nc2c(NC2CCC(C)(C)CC2)n1 [Compound 726]
< 10,≥ 100,CO[C@H](C)c1cc2cnc(Nc3ccc(N4CCNCC4)nn3)nc2c(NC2CCC(C)(C)OC2)n1 (some centres unmarked) [Compound 727]
< 10,≥ 100,CO[C@H](C)c1cc2cnc(Nc3ccc(N4CCNCC4)nn3)nc2c(SC(C)C)n1 [Compound 728]
< 10,≥ 100,CC(C)Nc1nc([C@@H](C)O)cc2cnc(Nc3ccc(N4CCN=CC4=O)cn3)nc12 [Compound 731]
< 10,≥ 100,CN[C@H]1CC[C@@H](Oc2ccc(Nc3ncc4cc([C@@H](C)O)nc(NC(C)C)c4n3)nc2)CC1 [Compound 738]
< 10,≥ 100,CNC1CCCC1Oc1ccc(Nc2ncc3cc(C(C)O)nc(NC(C)C)c3n2)nc1 (centres unmarked) [Compound 739]
< 10,≥ 100,CC(C)Nc1nc([C@@H](C)O)cc2cnc(Nc3ccc(O[C@H]4CC[C@@H](N(C)C)CC4)cn3)nc12 [Compound 741]
< 10,≥ 100,CC(C)Nc1nc(C(C)O)cc2cnc(Nc3ccc(OC4CCCC4N(C)C)cn3)nc12 (centres unmarked) [Compound 742]
< 10,≥ 100,CC(C)Nc1nc([C@@H](C)O)cc2cnc(Nc3ccc(N4CCN(C(=O)C(C)C)CC4)nn3)nc12 [Compound 746]
10 to 100,≥ 100,CO[C@H](C)c1cc2cnc(Nc3ccc(N4CCN(C(=O)OC(C)C)CC4)nn3)nc2c(NC(C)C)n1 [Compound 748]
< 10,≥ 100,CC(C)Nc1nc([C@@H](C)O)c(Cl)c2cnc(Nc3ccc(N4CCCNCC4=O)cn3)nc12 [Compound 750]

# Further lines, the molecule ahead of its results:
Compound,IC50 [1] [nM],IC50 [2] [nM]
"CO[C@H](C)c1cc2cnc(Nc3ccc(N4CCN(C(C)(C)C(=O)O)CC4)nn3)nc2c(NC(C)C)n1 [Compound 678, (R)-2-(4-(6-((8-(isopropylamino)-6-(1-methoxyethyl)pyrido[3,4-d]pyrimidin-2-yl)amino)pyridazin-3-yl)piperazin-1-yl)-2-methylpropanoic acid]",10 to 100,≥ 100
CO[C@H](C)c1cc2cnc(Nc3ccc(CN4CCN(C(C)(C)C(=O)O)CC4)cn3)nc2c(NC(C)C)n1 [Compound 679],10 to 100,≥ 100
CO[C@H](C)c1cc2cnc(Nc3ccc(CN4CCN(C5COC5)CC4)cn3)nc2c(NC(C)C)n1 [Compound 681],10 to 100,≥ 100
"CC(C)Nc1nc([C@@H](C)O)cc2cnc(Nc3ccc(N4CCN(C5COC5)CC4)nn3)nc12 [Compound 682, (R)-1-(8-(isopropylamino)-2-((6-(4-(oxetan-3-yl)piperazin-1-yl)pyridazin-3-yl)amino)pyrido[3,4-d]pyrimidin-6-yl)ethanol]",< 10,≥ 100
CC(C)Nc1nc([C@@H](C)O)cc2cnc(Nc3ccc(CN4CCN(C5COC5)CC4)cn3)nc12 [Compound 683],< 10,≥ 100
CC(C)Nc1nc([C@@H](C)O)cc2cnc(Nc3ccc(C4CCCNC(C)C4=O)cn3)nc12 (some centres unmarked) [Compound 686],< 10,≥ 100
C[C@@H](O)c1cc2cnc(Nc3ccc(N4CCNCC4=O)cn3)nc2c(NCC2CCCOC2)n1 (some centres unmarked) [Compound 691],< 10,≥ 100
C[C@@H](O)c1cc2cnc(Nc3ccc(N4CCNCC4=O)cn3)nc2c(NC2CCOC(C)(C)C2)n1 (some centres unmarked) [Compound 692],< 10,≥ 100
CO[C@H](C)c1cc2cnc(Nc3ccc(N4CC5(CCN5)C4)nn3)nc2c(NC(C)C)n1 [Compound 696],< 10,≥ 100
CC(C)Nc1nc([C@H](C)F)cc2cnc(Nc3ccc(N4CCNCC4)nn3)nc12 [Compound 698],< 10,≥ 100
CC(C)Nc1nc([C@@H](C)O)cc2cnc(Nc3ccc(N4CCN(C(C)(C)CO)CC4)nn3)nc12 [Compound 701],< 10,≥ 100
CC(C)Nc1nc([C@@H](C)O)c(Cl)c2cnc(Nc3ccc(N4CCC(OCC(=O)O)CC4)nn3)nc12 [Compound 703],10 to 100,≥ 100
CC(C)Nc1nc(C(C)O)cc2cnc(Nc3ccc(OC4CCNCC4F)cn3)nc12 (centres unmarked) [Compound 708],< 10,≥ 100
COC(=O)CNCCNc1ccc(Nc2ncc3cc([C@@H](C)O)nc(NC(C)C)c3n2)nc1 [Compound 717],10 to 100,≥ 100
C[C@@H](O)c1nc(N[C@H]2CCCOC2)c2nc(Nc3ccc(OCCN(C)C)cn3)ncc2c1Cl [Compound 719],< 10,≥ 100
CC(C)Nc1nc([C@@H](C)O)cc2cnc(Nc3ccc(N4CCN(C[C@@H](C)O)CCC4=O)cn3)nc12 [Compound 721],< 10,≥ 100
CC(C)Nc1nc([C@@H](C)O)cc2cnc(Nc3ccc(N4CCNC(C(C)C)C4=O)cn3)nc12 (some centres unmarked) [Compound 732],< 10,≥ 100
CC(C)Nc1nc([C@@H](C)O)cc2cnc(Nc3ccc(N4CCNC5(CC5)C4=O)cn3)nc12 [Compound 733],10 to 100,≥ 100
CC(=O)c1cc2cnc(Nc3ccc(OCCN(C)C)cn3)nc2c(NC(C)C)n1 [Compound 734],< 10,≥ 100
CN[C@H]1CC[C@H](Oc2ccc(Nc3ncc4cc([C@@H](C)O)nc(NC(C)C)c4n3)nc2)CC1 [Compound 737],< 10,≥ 100
CC(C)Nc1nc([C@@H](C)O)cc2cnc(Nc3ccc(O[C@H]4CC[C@H](N(C)C)CC4)cn3)nc12 [Compound 740],< 10,≥ 100
CC(=O)c1cc2cnc(Nc3ccc(N4CCNCC4=O)cn3)nc2c(NC(C)C)n1 [Compound 743],< 10,≥ 100
CC(C)Sc1nc([C@@H](C)O)cc2cnc(Nc3ccc(N4CCNCC4=O)cn3)nc12 [Compound 744],< 10,≥ 100
CC(=O)N1CCN(c2ccc(Nc3ncc4cc([C@@H](C)O)nc(NC(C)C)c4n3)nn2)CC1 [Compound 745],< 10,≥ 100
CO[C@H](C)c1cc2cnc(Nc3ccc(N4CCN(C(=O)C(C)C)CC4)nn3)nc2c(NC(C)C)n1 [Compound 747],10 to 100,≥ 100
